Bridge positions count the residues as written; N and C are the ends. Square brackets hold non-standard residues; d marks the D form. Peptide text beside a SMILES is read from it. * marks the point of attachment. Biotin = O=C1N[C@H]2[C@H](CS[C@H]2CCCCC(=O)*)N1; Nle = CCCC[C@H](N)C(=O)O
Key:
human LRP1(CL3)-Fc = human LRP1(CL3)-Fc (Homo sapiens, UniProt Q07954); experiment: Cell-free ELISA, binding of biotinylated peptide to captured LRP1; details: Fig. 3, n = 3
human LRP1(CL2)-Fc = human LRP1(CL2)-Fc (Homo sapiens, UniProt Q07954); experiment: as above; details: Fig. 3, n = 3
human LRP1(CL4)-Fc = human LRP1(CL4)-Fc (Homo sapiens, UniProt Q07954); experiment: as above; details: Supplementary Fig. S1
[1] = system: in vitro rat BBB model kit (RBT-24H); experiment: BBB permeability in in vitro rat BBB model; format: in vitro ADME; details: 1 μM input, 30 min, 37 °C, fluorescence, n = 1
LRP1 = details: read-out: LRP1-binding EC50; ref [18]; cited from earlier work
LRP1(CL2) = details: ref [18]; cited from earlier work

binding to LRP1(CL3) (human LRP1(CL3)-Fc)	binding to LRP1(CL2) (human LRP1(CL2)-Fc)	Compound	also measured
no binding or slight binding	no binding or slight binding	CCCC[C@H](NC(=O)[C@H](CCC(=O)O)NC(=O)[C@H](C)NC(=O)[C@H](CC(C)C)NC(=O)[C@H](CCCC)NC(=O)[C@H](Cc1ccc(O)cc1)NC(=O)[C@H](CCCCN)NC(=O)[C@H](Cc1ccc(O)cc1)NC(=O)[C@@H](NC(=O)[C@H](CS)NC(=O)[C@@H]1CCCN1C(=O)[C@@H](NC(=O)CNC(=O)[C@H](CCCCNC(=O)CCCC[C@@H]1SC[C@@H]2NC(=O)N[C@@H]21)NC(C)=O)[C@@H](C)O)[C@@H](C)O)C(=O)N[C@@H](CS)C(=O)O [Biotin-KS-487(linear)] (Ac-K(Biotin)GTPCTYKY[Nle]LAE[Nle]C-OH)	–
no binding or slight binding	no binding or slight binding	CCCC[C@@H]1NC(=O)[C@H](CCC(=O)O)NC(=O)[C@H](C)NC(=O)[C@H](CC(C)C)NC(=O)[C@H](CCCC)NC(=O)[C@H](Cc2ccc(O)cc2)NC(=O)[C@H](CCCCN)NC(=O)[C@H](Cc2ccc(O)cc2)NC(=O)[C@H]([C@@H](C)O)NC(=O)[C@@H](NC(=O)[C@@H]2CCCN2C(=O)[C@@H](NC(=O)CNC(=O)[C@H](CCCCNC(=O)CCCC[C@@H]2SC[C@@H]3NC(=O)N[C@@H]32)NC(C)=O)[C@@H](C)O)CSSC[C@@H](C(=O)O)NC1=O [Biotin-KS-487] (Ac-K(Biotin)GTPCTYKY[Nle]LAE[Nle]C-OH; disulfide 5-15)	–
–	–	CSCC[C@@H]1NC(=O)[C@H](CCC(=O)O)NC(=O)[C@H](C)NC(=O)[C@H](CC(C)C)NC(=O)[C@H](CCSC)NC(=O)[C@H](Cc2ccc(O)cc2)NC(=O)[C@H](CCCCN)NC(=O)[C@H](Cc2ccc(O)cc2)NC(=O)[C@H]([C@@H](C)O)NC(=O)[C@@H](NC(=O)[C@@H]2CCCN2C(=O)[C@@H](NC(=O)CNC(=O)[C@H](CCCCNC(=O)CCCC[C@@H]2SC[C@@H]3NC(=O)N[C@@H]32)NC(C)=O)[C@@H](C)O)CSSC[C@@H](C(=O)O)NC1=O [Biotin-Pep0] (Ac-K(Biotin)GTPCTYKYMLAEMC-OH; disulfide 5-15; N-terminus and C-terminus assumed)	binding activity to LRP1(CL4) (human LRP1(CL4)-Fc): moderate binding activity
–	–	C[C@@H](O)[C@H](NC(=O)CNC(=O)[C@@H](N)CCCCNC(=O)c1ccc2c(c1)C(=O)OC21c2ccc(O)cc2Oc2cc(O)ccc21)C(=O)N[C@@H](Cc1ccccc1)C(=O)N[C@@H](Cc1ccccc1)C(=O)N[C@@H](Cc1ccc(O)cc1)C(=O)NCC(=O)NCC(=O)N[C@@H](CO)C(=O)N[C@@H](CCCNC(=N)N)C(=O)NCC(=O)N[C@@H](CCCCN)C(=O)N[C@@H](CCCNC(=N)N)C(=O)N[C@@H](CC(N)=O)C(=O)N[C@@H](CC(N)=O)C(=O)N[C@@H](Cc1ccccc1)C(=O)N[C@@H](CCCCN)C(=O)N[C@H](C(=O)N[C@@H](CCC(=O)O)C(=O)N[C@@H](CCC(=O)O)C(=O)N[C@@H](Cc1ccc(O)cc1)C(=O)O)[C@@H](C)O [Pep 5FAM-ANG2]	% input crossed to the brain side [1]: below 0.5%
–	–	TWPKHFDKHTFYSILKLGKH-OH [Pep L57]	EC50 (LRP1): 45 nM; cross-reactivity to LRP1(CL2) (LRP1(CL2)): cross-reactivity

From PMC9552116 (Biochemistry and Biophysics Reports, 2022)
